What is called inhibition is the drop in the measured response relative to a control, in per cent. The IC50 is the concentration that gives 50% inhibition.

In ChEMBL document CHEMBL4842385, “Indirubin Derivatives as Dual Inhibitors Targeting Cyclin-Dependent Kinase and Histone Deacetylase for Treating Cancer” (J Med Chem, 2021) one finds inhibition, IC50 and CI data, which are given here for 29 molecules.

Assay [1] addresses Histone deacetylase (Homo sapiens) (UniProt Q13547+O15379+Q9UBN7+Q92769+Q9UQL6+Q8WUI4+Q9BY41+Q96DB2+P56524+Q9UKV0+Q969S8). The settings on record: HeLa, Nucleus, dose 1000.0 nM, time 1.0 hrs.
Assay [2] concerns the target CDK6/cyclin D3 (Homo sapiens) (UniProt P30281+Q00534). To be noted: dose 100.0 nM, time 10.0 min.
In assay [3] the target is CDK4/Cyclin D3 (Homo sapiens) (UniProt P11802+P30281). To be noted: dose 100.0 nM, time 10.0 min.
Assay [4] addresses CDK2/Cyclin A2 (Homo sapiens) (UniProt P24941+P20248). The settings on record: dose 100.0 nM, time 10.0 min.
Assay [5] deals with A549. In words: Antiproliferative activity against human A549 cells assessed as cell growth inhibition measured after 48 hrs by CCK8 assay. The format is functional, cell-based. To be noted: A549, 48 h. In general terms: Tetrazolium dyes change colour on reduction, which living cells bring about.
The next assay deals with HepG2. Kind of assay: Antiproliferative activity against human HepG2 cells assessed as cell growth inhibition measured after 48 hrs by CCK8 assay. It counts as functional, cell-based. To be noted: HepG2, 48 h.
A further assay concerns MCF7. Kind of assay: Antiproliferative activity against human MCF7 cells assessed as cell growth inhibition measured after 48 hrs by CCK8 assay. It counts as functional, cell-based. The settings on record: MCF7, 48 h.
A further assay deals with K562. Kind of assay: Antiproliferative activity against human K562 cells assessed as cell growth inhibition measured after 48 hrs by CCK8 assay. The settings on record: K562, 48 h. It counts as functional, cell-based.
In the next assay the test system is HeLa. Kind of assay: Antiproliferative activity against human HeLa cells assessed as cell growth inhibition measured after 48 hrs by CCK8 assay. It counts as functional, cell-based.
For assay [6], the system named is A549. Kind of assay: Synergistic antiproliferative activity against human A549 cells assessed as combination index in presence of 2.5 to 46 uM tubastatin-A by Chou-Talalay method. The format is functional. To be noted: dose 2.5-46 µM.
Assay [7] concerns A549. Kind of assay: Synergistic antiproliferative activity against human A549 cells assessed as combination index in presence of vorinostat by Chou-Talalay method. It counts as functional.

Bounds are passed on as bounds.

Consider `Cc1ccc2c(c1)/C(=C1/Nc3ccccc3/C1=N\OCCCCCCC(=O)NO)C(=O)N2`, for which the inhibition was 89.9% in [1], -2.2% in [2], 1.3% in assay [3] and 18.6% in assay [4].

With `COc1ccc2c(c1)/C(=C1/Nc3ccccc3/C1=N\OCCCCCCC(=O)NO)C(=O)N2`, the inhibition came to 88.6% in assay [1], 3.5% in assay [2], 13% in assay [3] and 54% in assay [4].

`COc1ccc2c(c1)C(=N\OCCCCCCC(=O)NO)/C(=C1/C(=O)Nc3ccccc31)N2`: the inhibition came out at 93.5% in assay [1] and 5.9% in [4].

Consider `O=C(CCCCCCC(=O)Nc1ccccc1)NO`, for which the inhibition is 0.8% in [2], -5.8% in assay [3] and 2.9% in assay [4].

Consider `O=C(CCCCCCO/N=C1/C(=C2/C(=O)Nc3ccccc32)Nc2ccc([N+](=O)[O-])cc21)NO`, for which the figures for the inhibition in assay [1] and in assay [4] were 76.6% and 6.2%, respectively.

With `O=C(CCCCCCCO/N=C1/C(=C2/C(=O)Nc3ccccc32)Nc2ccccc21)NO`, the inhibition was 90.6% in assay [1], -2.7% in assay [2], -4.5% in assay [3] and 6.6% in assay [4].

As for `O=C(CCCCCCO/N=C1/C(=C2/C(=O)Nc3ccccc32)Nc2ccc(Cl)cc21)NO`, the inhibition in assay [1] was 90.8%; in assay [4], -1.4%.

For the molecule `O=C(CO/N=C1/C(=C2/C(=O)Nc3ccccc32)Nc2ccccc21)NO`, the inhibition in assay [1] was 19.6%; in assay [2] it was 46.8%; in assay [3], 26.2%; in assay [4] it was 46.7%.

`O=C(CCCCCCO/N=C1/C(=C2/C(=O)Nc3ccc([N+](=O)[O-])cc32)Nc2ccccc21)NO`: the inhibition in [1] was determined as 77.2%; in assay [2], 1%; in [3], 1.1%; in assay [4], 33.4%.

As for `O=C(CCCCCCO/N=C1/C(=C2/C(=O)Nc3ccc(Cl)cc32)Nc2ccccc21)NO`, the inhibition in assay [1] came to 82.6%; in assay [2] it was 63%; in [3] it was 18%; in assay [4] it was 54.9%.

For the molecule `Cc1ccc2c(c1)NC(=C1\C(=O)Nc3ccccc31)/C2=N/OCCCCCCC(=O)NO`, the inhibition in [1] was determined as 94.4%; in assay [4], 4%.

`O=C(CCCCCO/N=C1/C(=C2/C(=O)Nc3ccc(Br)cc32)Nc2ccccc21)NO`: the inhibition in assay [1] is 21.4%; in assay [2] it was -0.7%; in assay [3], 3.5%.

In the case of `Cc1cccc2c1NC(=O)/C2=C1\Nc2ccccc2\C1=N/OCCCCCCC(=O)NO`, the inhibition in [1] amounted to 91.1%; in [2] it was 4.6%; in assay [3], 2%; in assay [4], 2.1%.

Consider `O=C1Nc2ccccc2/C1=C1/Nc2ccccc2C1=O` [INDIRUBIN], for which the IC50 in the assay on A549 [5], in the assay on HepG2, in the assay with MCF7, with K562 and in the assay with HeLa was > 10 µM in each case. In addition, the inhibition was 17.2% in [1], 25.1% in [2], 1% in assay [3] and 8.5% in assay [4].

For the molecule `O=C(CO/N=C1/C(=C2/C(=O)Nc3ccc(Br)cc32)Nc2ccccc21)NO`, the inhibition is 17.5% in [1], 44.4% in [2] and 54.5% in assay [3].

Turning to `O=C(CCCCCCO/N=C1/C(=C2/C(=O)Nc3ccccc32)Nc2ccccc21)NO`, the inhibition in assay [1] is 98.1%; in assay [2], 6.5%; in [3], 6.1%; in [4] it was 14.6%.

In the case of `COc1ccc2c(c1)NC(=O)/C2=C1\Nc2ccccc2\C1=N/OCCCCCCC(=O)NO`, the inhibition in [1] was 44.7%; in assay [2], 8.3%; in assay [3], -2.5%; in assay [4], 4.5%.

Turning to `O=C(CCCO/N=C1/C(=C2/C(=O)Nc3ccc(Br)cc32)Nc2ccccc21)NO`, the inhibition in assay [1] is 9.1%; in assay [2], -0.8%; in assay [3], -0.2%.

Turning to `O=C(CCCCCCO/N=C1/C(=C2/C(=O)Nc3c2cccc3C(F)(F)F)Nc2ccccc21)NO`, the inhibition was 8% in assay [1], 4% in assay [2], -5.6% in assay [3] and 3% in assay [4].

Turning to `Cc1ccc2c(c1)C(=N\OCCCCCCC(=O)NO)/C(=C1/C(=O)Nc3ccccc31)N2`, the inhibition in assay [1] was 97.8%; in assay [2], 2.7%; in assay [3] it was -1.7%; in [4], 11.6%.

Regarding `CC(=O)c1c(C)c2cnc(Nc3ccc(N4CCNCC4)cn3)nc2n(C2CCCC2)c1=O` [PALBOCICLIB], the IC50 in the assay with A549 [5] is 9.4 µM; in the assay with HepG2, > 10 µM; with MCF7 it was > 10 µM; with K562, > 10 µM; in the assay on HeLa, > 10 µM. The CI in the assay on A549 [6] and in the assay on A549 [7] was 0.9 each time.

Consider `O=C(CCCCCO/N=C1/C(=C2/C(=O)Nc3ccccc32)Nc2ccccc21)NO`, for which the inhibition in [1] was determined as 89.9%; in assay [2] it was 28.8%; in assay [3], 10.2%; in assay [4], 30%.

As to `O=C(CCCCCCO/N=C1/C(=C2/C(=O)Nc3ccccc32)Nc2ccc(Br)cc21)NO`, the inhibition in [1] came to 79.5%; in assay [4] it was 0.5%.

As for `O=C1Nc2ccccc2/C1=C1/Nc2ccccc2/C1=N\O`, the inhibition in [1] was 15%; in assay [2], 46.6%; in [3] it was -1.5%; in [4], 33.9%.

On to `O=C(CCCCO/N=C1/C(=C2/C(=O)Nc3ccc(Br)cc32)Nc2ccccc21)NO`, for which the inhibition in assay [1] came out at 60.2%; in [2], 8%; in assay [3] it was 17.9%.

With `O=C(CCCCO/N=C1/C(=C2/C(=O)Nc3ccccc32)Nc2ccccc21)NO`, the inhibition in [1] came out at 58.3%; in [2], 45.4%; in assay [3], 21.1%; in [4], 47.4%.

Take `O=C(CCCCCCO/N=C1/C(=C2/C(=O)Nc3ccc(F)cc32)Nc2ccccc21)NO`: the inhibition was determined as 82.7% in assay [1], 4.9% in [2], 17.2% in assay [3] and 45.4% in assay [4].

On to `O=C(CCCCCCO/N=C1/C(=C2/C(=O)Nc3ccc(Br)cc32)Nc2ccccc21)NO`, for which the inhibition was 87.5% in assay [1], -2.3% in assay [2], -4.3% in [3] and 5% in assay [4].

In the case of `O=C(CCCCCCO/N=C1/C(=C2/C(=O)Nc3ccc(I)cc32)Nc2ccccc21)NO`, the inhibition in assay [1] was 67.3%; in assay [2], 0.8%; in [3], 9.7%; in [4], 55.7%.
